# Earlier results as cited in paper PMC8985968, “Purification and characterization of antifungal lipopeptide produced by Bacillus velezensis isolated from raw honey” (PLoS ONE, 2022).
# How the values were obtained:
# [1] = system: Aspergillus, Fusarium, Chrysosporium, Candida albicans, Trichosporium, Alternaria, and Cladosporium; conditions: isolated from crude extract of B. subtilis
# Source text: In a study by Pathak and Keharia (2014), iturin isomers and surfactin families were isolated from crude extract of B. subtilis. […] Similar t ...
# mouse models = system: mouse models
# Description: The safety of the producer strains and their products need to be evaluated to achieve broader application of iturin A produced by Bacillus species. […] B. velezensis FZB42 type strain, which is closely related to our isolates, was also evaluated by US Environmental Protection Agency (EPA) and considered n ...
substance,measurement,setting,value
Iturin A2,Antifungal spectrum,[1],broad spectrum antifungal activities
Iturin A3/A4/A5,Antifungal spectrum,[1],broad spectrum antifungal activities
iturin,Acute toxicity test,"mouse models; intragastric, 7-day, 5000 mg/kg, no significant damage to liver, kidney, or small intestines",safe and non-toxic
same,Subacute toxicity test,"mouse models; intragastric, 28-day, 2000 mg/kg, no significant damage to liver, kidney, or small intestines",safe and non-toxic
iturin A,Organ-specific toxicity after discontinuation of treatment,mouse models; mouse models,reversible
same,Tissue deposition of iturin A,mouse models; mouse models,"deposited in liver, lung, and spleen"
same,Toxicity of iturin A in mouse models,"mouse models; preliminary toxicology study, acute and subacute",can induce hepatotoxicity
